In PubChem BioAssay (NCI) one finds GI50 and TGI data, which are given here for 8 compounds.

The structures appear in SMILES notation.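 Growth conditions: 96-well plates. Treatment: test compound, 48 hours, 5 concentrations. Analysis: linear interpolation between bracketing concentrations; unreached endpoints set to highest concentration. GI50 marks 50% less growth. The concentration for full growth arrest is given as TGI.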

Assay in all cases: NCI-60 cell line screen, 48 h
The test system of assay [1] is UACC-257 melanoma.
The subject of assay [2] is A549 NSCLC.
Assay [3] deals with ACHN renal.
In assay [4] the test system is SK-MEL-28 melanoma.
The subject of assay [5] is PC-3 prostate.
For assay [6], the system named is HT29 colon.
For assay [7], the system named is TK-10 renal.
The subject of assay [8] is OVCAR-3 ovarian.
Assay [9] relates to SR leukemia.
In assay [10] the test system is SNB-19 CNS.

`CCS(=O)(=O)c1ccc(OC)c(Nc2ncc(-c3cccc(-c4ccccc4F)c3)o2)c1`: the GI50 was more than 25 µM in [1]; more than 25 µM in assay [2]; 13.1 µM in assay [3]; more than 25 µM in assay [4]; 15.5 µM in assay [5]; 15 µM in assay [6]. In addition, the GI50 in assay [7] was 7.32 µM; in assay [8], 15.7 µM; in assay [9], more than 25 µM; in assay [10], more than 17.2 µM. The TGI in assay [1], in [2], in assay [3], in assay [4], in assay [5] and in [6] was more than 25 µM throughout. Besides, the TGI in assay [7], in [8], in [9] and in assay [10] was more than 25 µM in each case.
Consider `COc1c(Nc2ncc(Cl)c(N[C@@H]3[C@H]4C=CC(C4)[C@@H]3C(N)=O)n2)ccc2c1CC[C@@H](N1CCOCC1)CC2`, for which the GI50 in assay [1] is 4.81 µM; in [2] it was 4.02 µM; in assay [3], 2.66 µM; in assay [4], 3.25 µM; in assay [5] it was 3.94 µM; in assay [6] it was 2.68 µM. Besides, the GI50 was 1.7 µM in assay [7], 7.06 µM in assay [8], 0.43 µM in assay [9] and 9.37 µM in [10]. The TGI in [1] was determined as 19.8 µM; in assay [2], 17.5 µM; in [3] it was 24.3 µM; in assay [4], 17.7 µM; in [5], 23.7 µM; in assay [6], 10.6 µM. In addition, the TGI in [7] turned out to be 15.9 µM; in assay [8], 24.5 µM; in assay [9] it was 5.64 µM; in assay [10], 29.5 µM.
For the compound `O=C1OCC2=C1C(c1ccccc1)c1cc3c(cc1N2CCO)CCC3` (centres undefined), the GI50 in [1] was 0.0862 µM; in [2], 0.152 µM; in assay [3], 0.148 µM; in assay [4] it was 0.168 µM; in [5] it was 0.0986 µM; in assay [6], 0.0878 µM. Moreover, the GI50 in assay [7] is 1.52 µM; in [8], 0.0467 µM; in assay [9], 0.0762 µM; in assay [10] it was 0.119 µM. Moreover, the TGI in assay [1], in [2], in assay [3], in [4], in assay [5] and in assay [7] was more than 25 µM each time. Further, the TGI in assay [8] was 0.0975 µM; in assay [9], more than 25 µM; in [10], more than 12.9 µM.
Consider `C[C@@]12CCC[C@@](C)(C(=O)O)C1CC[C@]13C=C(CO)[C@](O)(CCC12)C3` (some centres undefined), for which the GI50 in [1], in assay [2], in [3], in assay [4], in [5] and in assay [6] was more than 100 µM in each case. The GI50 in assay [7], in assay [8], in assay [9] and in assay [10] was more than 100 µM each time. In addition, the TGI in assay [1], in [2], in assay [3], in assay [4], in assay [5] and in [6] was more than 100 µM each time. For the same compound, the TGI in assay [7], in assay [8], in assay [9] and in assay [10] was more than 100 µM in each case.
For the compound `O=C(/C=C/c1ccccc1O)c1ccccc1`, the GI50 in assay [1] is 12.1 µM; in [2], 17 µM; in assay [3] it was 11 µM; in assay [4], 9.5 µM; in [5], 7.13 µM; in [6], 3.55 µM. Further, the GI50 in assay [7] was 11.9 µM; in [8] it was 3.14 µM; in [9] it was 1.83 µM; in assay [10], 12.6 µM. The TGI in [1] was 25.3 µM; in assay [2], 36.1 µM; in assay [3], 24.2 µM; in assay [4] it was 22 µM; in assay [5] it was 41.6 µM; in assay [6] it was 15.4 µM. Moreover, the TGI in [7] worked out at 24.7 µM; in [8], 12.3 µM; in assay [9] it was 5.8 µM; in assay [10] it was 25.3 µM.
Take `NC(Cc1cc(Br)c(O)c(Br)c1)C(=O)O` (centres undefined): the TGI in assay [1], in assay [2], in assay [3], in [4], in [5] and in assay [6] was more than 100 µM throughout. For the same compound, the TGI in [7], in assay [8], in assay [9] and in assay [10] was more than 100 µM throughout.
`S=C(Nc1ccc(-c2nc3ccccc3s2)cc1)Nc1ccccn1`: the GI50 in assay [1] is 31.8 µM; in [2], 27 µM; in [3], 26.3 µM; in assay [4], 35.3 µM; in [5], 23.6 µM; in assay [6], 28.3 µM. In addition, the GI50 in assay [7] is 24.1 µM; in assay [8] it was 18.7 µM; in [9], 26.6 µM; in [10], 36.1 µM. Also, the TGI in assay [1] was more than 72 µM; in assay [2], more than 100 µM; in assay [3], more than 70.8 µM; in [4] it was more than 95.4 µM; in assay [5], more than 71.7 µM; in assay [6], more than 80.4 µM. The TGI in assay [7] is 70.2 µM; in assay [8], more than 53.9 µM; in assay [9], 57.4 µM; in [10] it was more than 100 µM.
As to `CCCCC(SC(=S)N(CC)CC)C(=O)Nc1nc(CC(=O)OCC)cs1` (centres undefined), the GI50 in [1] was 35.6 µM; in assay [2], 30.8 µM; in assay [3], 67.3 µM; in assay [4] it was 47.3 µM; in assay [5], 0.776 µM; in assay [6] it was 32.7 µM. Moreover, the GI50 in assay [7] is 82.9 µM; in assay [8], 13.7 µM; in assay [9], 29.4 µM; in assay [10], 56.9 µM. For the same compound, the TGI in assay [1], in assay [2], in assay [3], in [4], in assay [5] and in [6] was more than 100 µM throughout. In addition, the TGI in assay [7], in [8], in assay [9] and in assay [10] was more than 100 µM in each case.
